Values of other authors as cited in patent US20070009558A1, “Sugar-free storage-stable antihistaminic syrups” (priority 2004, published 2007).
Where two headings read alike, the source gives them in different places.

In the case of `Clc1ccc2c(c1)CCc1cccnc1C2=C1CCNCC1` [Desloratadine, 8-chloro-6,11-dihydro-11-(4-piperdinylidene)-5H-benzo[5,6]cyclohepta[1 ,2-b]pyridine], the solubility (in ethanol) is given as “very soluble”, the solubility (in propylene glycol) is given as “very soluble” and the solubility (in water) is given as “slightly soluble”.
